Data on one compound can be found in paper PMC10361207, “Cannabinoid and Opioid Receptor Affinity and Modulation of Cancer-Related Signaling Pathways of Machaeriols and Machaeridiols from Machaerium Pers” (Molecules, 2023).

Data set [1] in a line: Cytotoxicity, Neutral Red, LLC-PK1. Type of data set: cell-based. The settings on record: pig, LLC-PK1 kidney epithelial cells, Na = not active up to 50 µg/mL. On the procedure:
In vitro cytotoxic activity was determined against five human cancer cell lines—malignant melanoma (SK-MEL), epidermal carcinoma oral (KB), ductal carcinoma breast (BT-549), ovary carcinoma (SKOV-3) and cervical (HeLa) cancer cells—and two non-cancerous kidney cell lines (LLC-PK1 and Vero). All cell lines were obtained from the American Type Culture Collection (ATCC, Rockville, MD, USA). Each assay was performed in 96-well tissue culture-treated microplates. The cells were seeded at a density of 25,000 cells/well and incubated for 24 h. Samples at different concentrations were added, and the cells were incubated again for 48 h. At the end of the incubation, the cell viability was determined using Neutral Red dye according to a modification of the procedure used by Borenfreund et al.. IC50 values were determined from dose–response curves of the percent growth inhibition against test concentrations. Doxorubicin was used as a positive control, while DMSO was used as the negative (vehicle) control.

The subject of data set [2] is ETS. Put plainly: Luciferase reporter assay, ETS, T98G. It is filed as cell-based. As to conditions: Homo sapiens; T98G cells; inducer PMA. On the procedure: Hela cells (or T98G cells) from ATCC were plated in white opaque 384-well plates at a density of 4300 cells/well in 30 µL of growth medium (DMEM with 10% FBS and 1% Pen/Strep). The next day, the medium was aspirated and replaced with DMEM containing 1% FBS. The cells were transfected with respective plasmids using X-tremeGENE HP DNA transfection reagent (Roche). After 24 h of transfection, the test agents were added to the transfected cells, followed 30 min later by an inducing agent: interleukin 6 (IL-6) for Stat3, TGF-β for Smad, m-wnt3a for Wnt and PMA for AP-1, NF-κB, E2F, Myc, ETS, Notch and Hedgehog. No inducer was added for FoXO and pTK. After 4 h or 6 h of induction, the cells were lysed via the addition of the One-Glo luciferase assay system (Promega; Madison, WI). The light output was detected in a GloMax®-Multi+ Detection System with Instinct® Software (Promega E 8051). This luciferase assay determines if the test agent is able to inhibit the activation of cancer-related signaling pathways. In the case of FoxO, the enhanced luciferase activity via the test agent was assessed.

In brackets after ≈: the same amount, converted by molar mass.

For `C=C(C)[C@H]1CC[C@H](C)C[C@@H]1c1c(O)cc(/C=C/c2ccccc2O)cc1O` [compound 6, machaeridiol B], in data set [1], the IC50 – broadly, the concentration at which inhibition is half-maximal – at 48 h was found to be 37 µg/mL (≈ 102 µM). Further, the IC50 in data set [2] stood at 5.9 µM.
